Test [1] has as its system PCP recognition sites. Kind of test: [3H]TCP radioreceptor assay (internal screen), binding to PCP recognition sites in rat whole brain membranes. Details: species or system rat (male Sprague-Dawley). The note with it: 25 min, room temperature; for Ki: approx. 1 nM [3H]TCP, mean of at least two separate determinations. The method, then: [^3 H]TCP binding to PCP recognition sites was performed as described by Vignon et al. Brain Research 1983, 280, 194-197. Male Sprague-Dawley rats were sacrificed by decapitation, and whole brains were homogenized in 10 volumes (wt/vol) of cold Tris-HCl buffer (50 mM, pH 7.7) using a Brinkmann Polytron (setting 6, 30 sec). The homogenate was centrifuged at 40,000×g for 10 min at 4° C. The supernatant was decanted, and the homogenization and centrifugation steps were repeated twice as described above. Following this, the pellet was resuspended in Tris-HCl (5 mM, pH 7.7) at a tissue concentration of 0.5-0.75 g/ml, and one ml aliquots were frozen at -70° C. until use. The binding characteristics for PCP recognition sites were not altered by the freezing of membrane suspensions.
On the day of the assay, membrane aliquots were thawed, resuspended in fresh 5 mM Tris-HCl buffer at a tissue concentration of 1 mg/ml, and stored on ice until use. Each assay tube contained 100 μl of [^3 H]TCP at a final concentration of approximately 1 nM, 100 μl of various concentrations of the compounds of interest, 500 μl of the tissue suspension and 300 μl of buffer to a final assay volume of 1 ml and a final protein concentration of 0.5 mg/tube. Non-specific binding was defined by addition of a final concentration of 100 μM PCP to blank tubes. All tubes were incubated at room temperature for 25 min before termination of the reaction by rapid filtration over Whatman GF/B glass fiber filters that had been presoaked in a solution of 0.5% polyethylenimine for at least 1 hr prior to use. Filters were washed with three 4 ml volumes of cold Tris buffer. Following addition of scintillation cocktail, the amount of bound radioactivity was determined by liquid scintillation spectrometry using a Beckman LS 5000TA liquid scintillation counter with an efficiency for tritium of approximately 55%. Inhibition constants (Ki values) were calculated using the EBDA/LIGAND program (McPherson, J. Pharmacol. Meth. 1985, 14, 213-228), purchased from Elsevier/Biosoft, Inc. Results are reported as Ki values which are expressed as the mean of at least two separate determinations; or as a percent (%) inhibition of binding at 10 μM.

Test [2] concerns PCP recognition sites. As to the kind of experiment: [3H]TCP radioreceptor assay (external screen), binding to PCP recognition sites in whole rat forebrain membranes. The note with it: 25° C., 60 min. The method, then:
A procedure similar to that described above, for the [^3 H]TCP radioreceptor assay (internal screen) was utilized except that the whole rat forebrain membranes were incubated at 25° C. for 60 minutes rather than at room temperature for 25 minutes, before termination of the reaction. The results are reported as a percent (%) inhibition of binding at 10 μM.

In test [3] the test system is NMDA-induced neurotoxicity in cultured cortical neurons. Kind of test: Antagonism of NMDA-induced neurotoxicity in cultured cortical neurons (LDH release). It is filed as cell-based, mouse (Swiss-Webster). The note with it: Mus musculus, Cortical neurone; 500 μM NMDA, 30 min exposure; LDH activity 24 h after removal of NMDA; day 13 cultured cortical neurons. The method, then:
Pregnant, Swiss-Webster mice were obtained from Taconic Farms (Germantown, N.Y.) and sacrificed 16 days post conception. Fetuses were removed and placed in a sterile dish containing Hank's balanced salt solution (HBSS), pH 7.4. Brain cortices were dissected, meninges were removed, the tissue was minced and placed into a solution of HBSS containing 0.25% (w/v) trypsin at 37° C. for 15 minutes. Tissue was then triturated with a sterile pasteur pipet, diluted with minimal essential media (Gibco 330-1430), pH 7.4, supplemented with 10% horse serum, 10% fetal calf serum, 2 mM 1-glutamine, 21 mM d-glucose, 2.2 g/L sodium bicarbonate, 1000 U/ml penicillin, and 1,000 μg/ml streptomycin. Cells were plated onto Falcon primaria 96 well plates at a final density of 50,000 cells/well and incubated at 37° C. in the presence of 5% (v/v) carbon dioxide. After 5 days, plating media was replaced with maintenance media containing minimal essential media (Gibco 330-1430), pH 7.4, supplemented with 10% horse serum, 10% 1-glutamine, 21 mM d-glucose, 2.2 g/l sodium bicarbonate,1,000 U/ml penicillin, 1,000 μg/ml streptomycin, and 10 μM cytosine arabinoside. On days 7 and 10, media was replaced with maintenance media as above lacking the cytosine arabinoside. Experiments were conducted on day 13. […]
Background: LDH leaks from cells whose membrane has failed.

These results are taken from patent publication US5430036A, “6,11-substituted-6,11-dihydrobenzo[b]quinolizinium salts and compositions and method of use thereof” (Sterling Winthrop Inc., priority 1994, dated 1995).

As to `O=[N+]([O-])c1cccc2c1C1c3ccccc3C2c2cccc[n+]21` (centres unmarked) [15(b), 7-Nitro-6,11-benzeno-6,11-dihydrobenzo[b]quinolizinium perchlorate], the “[3H]TCP (internal screen) Percent Inhibition @10 μM” value in test [1] was 37%. The “[3H]TCP (external screen) Percent Inhibition (%) @10 μM” value in test [2] turned out to be 9%.

In general, Ki refers to a measure of affinity in units of concentration, obtained from inhibition or displacement. Read a high Ki as lower affinity. As a reminder, the IC50 is the midpoint of a concentration-inhibition curve. Read a high IC50 as weaker potency. Turning to `c1ccc2c(c1)C1c3cccc[n+]3C2C2CCCC12` (centres unmarked) [Example 13(b), 6,11[1',2']cyclopentyl-6,11-dihydrobenzo[b]quinolizinium perchlorate.1/2 hydrate], affinity in test [1] (hydrate) was put at a Ki of 366 nM. Also, in test [3], the IC50 is 8400 nM.

Consider `CC(C)(C)c1ccc(O)c2c1C1c3ccccc3C2[n+]2ccccc21` (centres unmarked) [15(c), 7-Hydroxy-10-tert-butyl-6,11-benzeno-6,11-dihydrobenzo[b]quinolizinium perchlorate], for which the “[3H]TCP (internal screen) Percent Inhibition @10 μM” value in test [1] came to 10%. Moreover, the “[3H]TCP (external screen) Percent Inhibition (%) @10 μM” value in test [2] amounted to 24%.

As for `Cc1cccc2c1C1c3ccccc3C2c2cccc[n+]21` (centres unmarked) [15(d), 7-Methyl-6,11-benzeno-6,11-dihydrobenzo[b]quinolizinium perchlorate], the “[3H]TCP (internal screen) Percent Inhibition @10 μM” value in test [1] is listed as 52%. Besides, the “[3H]TCP (external screen) Percent Inhibition (%) @10 μM” value in test [2] was determined as 11%.

Regarding `Brc1ccc2c(c1)C1c3cccc[n+]3C2C2CC=CC12` (centres unmarked) [4(c), 9-bromo-6,11[3',4']cyclopentenyl-6,11-dihydrobenzo[b]quinolizinium bromide], the affinity in test [1] corresponds to a Ki of 1630 nM. That is a single-digit micromolar value.

`CC12c3ccccc3C(c3cccc[n+]31)C1C=CCC12` (centres unmarked) [12(c), 6-methyl-6,11[3',4']cyclopentenyl-6,11-dihydrobenzo[b]quinolizinium perchlorate, .1/2 H2 O] displayed a Ki in test [1] of 93.4 nM.

Compound `c1ccc2c(c1)C1c3cccc[n+]3C2C2CCCC12` (centres unmarked) [Example 13(a), 6,11[1',2']cyclopentyl-6,11-dihydrobenzo[b]quinolizinium perchlorate.1/2 hydrate] yielded a Ki in test [1] (hydrate) of 1560 nM.

In turn, `C1=CC2C3c4ccccc4C(C2CC1)[n+]1ccccc13` (centres unmarked) [Example 1, 6,11[3',4']-cyclohexenyl-6,11-dihydrobenzo[b]quinolizinium bromide] came in with a Ki in test [1] of 245 nM.

Take `C1=CC2C3c4ccccc4C(C2C1)[n+]1ccccc13` (centres unmarked) [15(a), 6,11-[3',4']cyclopentenyl-6,11-dihydrobenzo[b]quinolizinium bromide]: in test [1], the affinity, expressed as Ki, was 464 nM. For the same compound, in test [2], the “[3H]TCP (external screen) Percent Inhibition (%) @10 μM” value stood at 92%.

Turning to `c1ccc2c(c1)C1c3cccc[n+]3C2C2CCOC12` (centres unmarked) [Example 8, 6,11[2',3']tetrahydrofuranyl-6,11-dihydrobenzo[b]-quinolizinium bromide], in test [1], the affinity corresponds to a Ki of 8490 nM.

As for `Fc1ccc2c(c1)C1c3cccc[n+]3C2C2CC=CC12` (centres unmarked) [5(c), 9-fluoro-6,11[3',4']cyclopentenyl-6,11-dihydrobenzo-[b]quinolizinium perchlorate], in test [1], the Ki came out at 806 nM.

Compound `CC(C)=C1C=CC2C3c4ccccc4C(C12)[n+]1ccccc13` (centres unmarked) [14(b), 6,11-[5'-isopropylidene-[3',4']cyclopentenyl]-6,11-dihydrobenzo[b]quinolizinium perchlorate] returned a Ki in test [1] of 367 nM.
